Experimental data reported in PMC10612037 (Viruses, 2023).
Counter-ions that a name gives are not always drawn.

Legend:
[1] = tested on: HIV-1 reverse transcriptase (endogenous RT in virions); assay: Endogenous reverse transcriptase assay; format: biochemical; settings: K65R virions
HIV-1 NL4-3 = assay: Dose-response assay in TZM-GFP cells, NL4-3 molecular clones with RT mutations; settings: for major resistance observed: all NL4-3 mutants tested, major = >12-fold for ISL, >4-fold for TDF
[2] = tested on: HIV-1 subtypes A, B, C, D, CRF_AE, CRF_AG; assay: Dose-response assay in TZM-GFP cells, diverse primary isolates
HIV-1 xxLAI = assay: microbe, parasite or virus in culture; format: cell-based; settings: Human immunodeficiency virus 1; unpassaged HIV-1 xxLAI WT stock virus
[3] = tested on: HIV-1 isolates B, C, CRF_AE, CRF_AG; format: cell-based
[4] = cited from earlier work
HIV-1 RT = tested on: HIV-1 RT; parameters: method as in earlier work; settings: K65R RT; cited from earlier work

| SMILES | resistance phenotype (IC50 fold change from WT) [1] | fold resistance relative to WT (EC50 fold change) (HIV-1 NL4-3; NL4-3 K65R) [fold] | major resistance observed (HIV-1 NL4-3) | EC50 fold change from NL4-3 ([2]; subtype A) [fold] | EC50 fold change from NL4-3 ([2]; subtype B) [fold] | EC50 fold change from NL4-3 ([2]; subtype C) [fold] | EC50 fold change from NL4-3 ([2]; subtype D) [fold] | EC50 (HIV-1 xxLAI) [nM] | fold more susceptible, K65R with Ser68 vs K65R with Gly68 ([3]; CRF_AE backbone) [fold] | susceptibility of Ser68 compared with Gly68 ([3]; CRF_AE backbone) | sensitivity of mutant relative to WT ([3]; K65R, regardless of the isolate (B, C, CRF_AE, CRF_AG)) | tolerability ([4]; early clinical studies in humans) | effect on CD4 T cell population ([4]; lower dose of ISL) | effect on CD4 T cells ([4]; subsequent clinical studies, patients on ISL) | fold more sensitive than WT (EC50) (HIV-1 NL4-3; NL4-3 K65R) [fold] | fold more susceptible than wildtype RT (HIV-1 RT) [fold] | EC50 fold change from NL4-3 ([2]; all subtypes (A, B, C, D, CRF_AE, CRF_AG), 8-10 isolates each) |
| --- | --- | --- | --- | --- | --- | --- | --- | --- | --- | --- | --- | --- | --- | --- | --- | --- | --- |
| C[C@@H](Cn1cnc2c(N)ncnc21)OCP(=O)(O)OP(=O)(O)OP(=O)(O)O [TFV-DP] | conferred resistance | – | – | – | – | – | – | – | – | – | – | – | – | – | – | – | – |
| CC(C)OC(=O)OCOP(=O)(CO[C@H](C)Cn1cnc2c(N)ncnc21)OCOC(=O)OC(C)C [TDF, Tenofovir disoproxil fumarate] | – | 3 | No major resistance | 1.3 | 2.2 | 2.2 | 1.6 | 24.6 | – | – | – | – | – | – | – | – | – |
| C#C[C@]1(CO)O[C@@H](n2cnc3c(N)nc(F)nc32)C[C@@H]1O [ISL, 4′-ethynyl-2-fluoro-2′-deoxyadensine] | – | – | No major resistance | – | – | – | – | 3.6 | 3 | more susceptible | hypersensitivity | well tolerated | without any effects on the CD4 T cell population | decline in CD4 T cells | 4 | 4 | no more than 1.3 fold |
